Results reported in ChEMBL document CHEMBL1135425, “Antitumor agents. 213. Modeling of epipodophyllotoxin derivatives using variable selection k nearest neighbor QSAR method” (J Med Chem, 2002).
Several values for one entry are separate records, joined by “and”; a condition that tells them apart may be missing. Equal values may be shown once.

target: DNA topoisomerase II (Homo sapiens) (UniProt P11388+Q02880); test: Percentage of intracellular covalent DNA-topoisomerase II complexes formed; type: cell-based

`COC(=O)c1ccc(N[C@@H]2c3cc4c(cc3[C@@H](c3cc(OC)c(O)c(OC)c3)[C@H]3C(=O)OC[C@@H]32)OCO4)cc1` and `CCOC(=O)c1ccc(N[C@@H]2c3cc4c(cc3[C@@H](c3cc(OC)c(O)c(OC)c3)[C@H]3C(=O)OC[C@@H]32)OCO4)cc1` are the same in Complex formation: 207% for the first, 207% for the second.

Going from `COc1cc2c(cc1OC)[C@@H](c1cc(OC)c(O)c(OC)c1)[C@H]1C(=O)OC[C@@H]1C2Nc1ccc(C#N)cc1` (stereo partly specified) to `COc1cc2c(cc1OC)[C@@H](c1cc(OC)c(OC)c(OC)c1)[C@H]1C(=O)OC[C@@H]1C2Nc1ccc(C#N)cc1` (stereo partly specified), the Complex formation falls from 125% to 12%.

Compared with `COc1cc([C@@H]2c3cc4c(cc3[C@@H](Oc3ccc(O)cc3)[C@H]3COC(=O)[C@H]23)OCO4)cc(OC)c1O`, `COc1cc([C@@H]2c3cc4c(cc3[C@@H](Oc3ccc(F)cc3)[C@H]3COC(=O)[C@H]23)OCO4)cc(OC)c1O` is higher in Complex formation: 34% for the first, 57% for the second.

Compared with `COc1cc([C@@H]2c3cc4c(cc3[C@@H](Nc3cc([N+](=O)[O-])cc([N+](=O)[O-])c3)[C@H]3COC(=O)[C@H]23)OCO4)cc(OC)c1O`, `COc1cc([C@@H]2c3cc4c(cc3[C@@H](Nc3ccc([N+](=O)[O-])cc3)[C@H]3COC(=O)[C@H]23)OCO4)cc(OC)c1O` is higher in Complex formation: 20% for the first, 323% for the second.

First: COc1cc([C@@H]2c3cc4c(cc3[C@@H](O[C@@H]3O[C@@H]5CO[C@@H](C)O[C@H]5[C@H](O)[C@H]3O)[C@H]3COC(=O)[C@H]23)OCO4)c(Cl)c(OC)c1O
Second: COc1cc([C@@H]2c3cc4c(cc3[C@@H](O)[C@H]3COC(=O)[C@H]23)OCO4)c(Cl)c(OC)c1O
The Complex formation of the first is lower: 6.1% for the first, 15.6% for the second.

First: COc1cc([C@@H]2c3cc4c(cc3[C@@H](NC(=O)Nc3ccc(Cl)cc3)[C@H]3COC(=O)[C@H]23)OCO4)cc(OC)c1O
Second: COc1cc([C@@H]2c3cc4c(cc3[C@@H](NC(=O)Nc3ccc(F)cc3)[C@H]3COC(=O)[C@H]23)OCO4)cc(OC)c1O
The Complex formation of the first is higher: 125% for the first, 118% for the second.

Going from `CCOC(=O)c1ccc(NC2c3cc(O)c(O)cc3[C@@H](c3cc(OC)c(O)c(OC)c3)[C@H]3C(=O)OC[C@H]23)cc1` (stereo partly specified) to `CCOC(=O)c1ccc(NC2c3cc(OC)c(OC)cc3[C@@H](c3cc(OC)c(O)c(OC)c3)[C@H]3C(=O)OC[C@H]23)cc1` (stereo partly specified), the Complex formation falls from 138% to 127%.

Going from `COc1cc([C@@H]2c3cc4c(cc3[C@@H](NC(=O)c3cccc([N+](=O)[O-])c3)[C@H]3COC(=O)[C@H]23)OCO4)cc(OC)c1O` to `COc1cc([C@@H]2c3cc4c(cc3[C@@H](NC(=O)c3cccc(F)c3)[C@H]3COC(=O)[C@H]23)OCO4)cc(OC)c1O`, the Complex formation rises from 86% to 116%.

First: COc1cc([C@@H]2c3cc(O)c(O)cc3C(Nc3ccc(C#N)cc3)[C@H]3COC(=O)[C@H]23)cc(OC)c1O (stereo partly specified)
Second: COc1cc([C@@H]2c3cc(O)c(O)cc3C(Nc3ccc(C#N)cc3)[C@H]3COC(=O)[C@H]23)cc(OC)c1OC (stereo partly specified)
The Complex formation of the first is higher: 62% for the first, 33% for the second.

Going from `COc1cc([C@@H]2c3cc4c(cc3[C@@H](Nc3cc(OC)c(OC)c(OC)c3)[C@H]3COC(=O)[C@H]23)OCO4)cc(OC)c1O` to `COc1cc([N+](=O)[O-])c(OC)cc1N[C@@H]1c2cc3c(cc2[C@@H](c2cc(OC)c(O)c(OC)c2)[C@H]2C(=O)OC[C@@H]21)OCO3`, the Complex formation falls from 47% to 4.4%.

Going from `COc1cc([C@@H]2c3cc(O)c(O)cc3[C@@H](Nc3ccc([N+](=O)[O-])cc3)[C@H]3COC(=O)[C@H]23)cc(OC)c1O` to `COc1cc([C@@H]2c3cc(O)c(O)cc3[C@@H](Nc3ccc([N+](=O)[O-])cc3)[C@H]3COC(=O)[C@H]23)cc(OC)c1OC`, the Complex formation falls from 99% to 23%.

Compared with `COC(=O)c1cccc(NC2c3cc4c(cc3[C@@H](c3cc(O)c(O)c(OC)c3)[C@H]3C(=O)OC[C@H]23)OCO4)c1` (stereo partly specified), `COC(=O)c1ccc(N[C@@H]2c3cc4c(cc3[C@@H](c3cc(OC)c(O)c(OC)c3)[C@H]3C(=O)OC[C@@H]32)OCO4)cc1O` is higher in Complex formation: 94% for the first, 129% for the second.

Going from `COc1cc([C@@H]2c3cc4c(cc3C(Nc3ccc(F)cc3)[C@H]3COC(=O)[C@H]23)OCO4)cc(O)c1O` (stereo partly specified) to `COc1cc([C@@H]2c3cc4c(cc3C(Nc3ccc(Cl)cc3)[C@H]3COC(=O)[C@H]23)OCO4)cc(O)c1O` (stereo partly specified), the Complex formation falls from 117% to 77%.

Going from `COc1cc([C@@H]2c3cc4c(cc3[C@@H](Nc3ccc(F)cc3)[C@H]3COC(=O)[C@H]23)OCO4)cc(OC)c1O` to `COc1cc([C@@H]2c3cc4c(cc3[C@@H](Nc3ccc(N)cc3)[C@H]3COC(=O)[C@H]23)OCO4)cc(OC)c1O`, the Complex formation rises from 213% to 330%.

Compared with `COc1cc([C@@H]2c3cc4c(cc3[C@@H](NC(=O)Nc3ccccc3)[C@H]3COC(=O)[C@H]23)OCO4)cc(OC)c1O`, `COc1cc([C@@H]2c3cc4c(cc3[C@@H](Nc3ccccc3)[C@H]3COC(=O)[C@H]23)OCO4)cc(OC)c1O` is higher in Complex formation: 148% for the first, 243% for the second.

Going from `COc1cc([C@@H]2c3cc4c(cc3C(Nc3ccc(CC#N)cc3)[C@H]3COC(=O)[C@H]23)OCO4)cc(O)c1O` (stereo partly specified) to `COc1cc([C@@H]2c3cc4c(cc3[C@@H](Nc3ccc(C#N)cc3)[C@H]3COC(=O)[C@H]23)OCO4)cc(OC)c1O`, the Complex formation rises from 109% to 211%.

Compared with `COc1cc([C@@H]2c3cc4c(cc3[C@@H](Nc3ccccc3O)[C@H]3COC(=O)[C@H]23)OCO4)cc(OC)c1O`, `CCOC(=O)c1ccccc1N[C@@H]1c2cc3c(cc2[C@@H](c2cc(OC)c(O)c(OC)c2)[C@H]2C(=O)OC[C@@H]21)OCO3` is lower in Complex formation: 151% for the first, 4% for the second.

Compared with `COc1cc([C@@H]2c3cc4c(cc3[C@@H](Nc3ccc5c(c3)OCCO5)[C@H]3COC(=O)[C@H]23)OCO4)cc(OC)c1O`, `COc1cc([C@@H]2c3cc4c(cc3C(Nc3ccc5c(c3)OCCO5)[C@H]3COC(=O)[C@H]23)OCO4)cc(O)c1O` (stereo partly specified) is lower in Complex formation: 279% for the first, 119% for the second.

Going from `COc1cc([C@@H]2c3cc4c(cc3[C@@H](NCCO)[C@H]3COC(=O)[C@H]23)OCO4)cc(OC)c1O` to `COc1cc([C@@H]2c3cc4c(cc3[C@@H](NCCCO)[C@H]3COC(=O)[C@H]23)OCO4)cc(OC)c1O`, the Complex formation falls from 121% to 89.2%.

First: COc1cc([C@@H]2c3cc4c(cc3[C@@H](Nc3cccc(C#N)c3)[C@H]3COC(=O)[C@H]23)OCO4)cc(OC)c1O
Second: COc1cc([C@@H]2c3cc4c(cc3[C@@H](Nc3cccc(F)c3)[C@H]3COC(=O)[C@H]23)OCO4)cc(OC)c1O
The Complex formation of the first is lower: 137% for the first, 158% for the second.

Compared with `COC1=CC([C@@H]2c3cc4c(cc3C(NC(=O)N(CCCl)N=O)[C@H]3COC(=O)[C@H]23)OCO4)=CC(=O)C1=O` (stereo partly specified), `COC1=CC([C@@H]2c3cc4c(cc3C(NC(=O)N(C)N=O)[C@H]3COC(=O)[C@H]23)OCO4)=CC(=O)C1=O` (stereo partly specified) is higher in Complex formation: 7% for the first, 41% for the second.

Going from `COc1cc([C@@H]2c3cc4c(cc3[C@@H](NCc3cccc([N+](=O)[O-])c3)[C@H]3COC(=O)[C@H]23)OCO4)cc(OC)c1O` to `COc1cc([C@@H]2c3cc4c(cc3[C@@H](NCc3cccc(F)c3)[C@H]3COC(=O)[C@H]23)OCO4)cc(OC)c1O`, the Complex formation rises from 130% to 216%.

Going from `COc1cc(CN[C@@H]2c3cc4c(cc3[C@@H](c3cc(OC)c(O)c(OC)c3)[C@H]3C(=O)OC[C@@H]32)OCO4)cc(OC)c1` to `COc1cc([C@@H]2c3cc4c(cc3[C@@H](NCc3cccc(N)c3)[C@H]3COC(=O)[C@H]23)OCO4)cc(OC)c1O`, the Complex formation rises from 144% to 191%.

Compared with `COc1cc([C@@H]2c3cc4c(cc3[C@@H](NCc3cccc(C#N)c3)[C@H]3COC(=O)[C@H]23)OCO4)cc(OC)c1O`, `COc1cc([C@@H]2c3cc4c(cc3[C@@H](NCc3ccccc3F)[C@H]3COC(=O)[C@H]23)OCO4)cc(OC)c1O` is lower in Complex formation: 225% for the first, 126% for the second.

First: COc1ccc([N+](=O)[O-])cc1N[C@@H]1c2cc3c(cc2[C@@H](c2cc(OC)c(O)c(OC)c2)[C@H]2C(=O)OC[C@@H]21)OCO3
Second: COc1cc([N+](=O)[O-])ccc1N[C@@H]1c2cc3c(cc2[C@@H](c2cc(OC)c(O)c(OC)c2)[C@H]2C(=O)OC[C@@H]21)OCO3
The Complex formation of the first is lower: 12% for the first, 83% for the second.

Going from `COc1cc2c(cc1OC)[C@@H](c1cc(OC)c(O)c(OC)c1)[C@H]1C(=O)OC[C@@H]1C2Nc1ccc(F)cc1` (stereo partly specified) to `COc1cc([C@@H]2c3cc(O)c(O)cc3C(Nc3ccc(F)cc3)[C@H]3COC(=O)[C@H]23)cc(OC)c1OC` (stereo partly specified), the Complex formation falls from 108% to 11%.

First: COc1cc([C@@H]2c3cc4c(cc3[C@@H](NC[C@H](C)O)[C@H]3COC(=O)[C@H]23)OCO4)cc(OC)c1O
Second: CCCN[C@@H]1c2cc3c(cc2[C@@H](c2cc(OC)c(O)c(OC)c2)[C@H]2C(=O)OC[C@@H]21)OCO3
The Complex formation of the first is higher: 167% for the first, 69.7% for the second.

First: COc1cc([C@@H]2c3cc4c(cc3[C@@H](Nc3ccc(C(=O)O)cc3)[C@H]3COC(=O)[C@H]23)OCO4)cc(OC)c1O
Second: COc1cc([C@@H]2c3cc4c(cc3[C@@H](NC(=O)c3ccc(F)cc3)[C@H]3COC(=O)[C@H]23)OCO4)cc(OC)c1O
The Complex formation of the first is lower: 6.9% for the first, 117% for the second.

Going from `COCCN[C@@H]1c2cc3c(cc2[C@@H](c2cc(OC)c(O)c(OC)c2)[C@H]2C(=O)OC[C@@H]21)OCO3` to `COc1cc([C@@H]2c3cc4c(cc3[C@@H](NCc3ccccc3N)[C@H]3COC(=O)[C@H]23)OCO4)cc(OC)c1O`, the Complex formation rises from 111% to 184%.

First: COc1cc([C@@H]2c3cc4c(cc3[C@@H](NC(=O)c3ccc(OC(C)=O)cc3)[C@H]3COC(=O)[C@H]23)OCO4)cc(OC)c1O
Second: COc1cc([C@@H]2c3cc4c(cc3[C@@H](NC(=O)c3ccc(C(C)=O)cc3)[C@H]3COC(=O)[C@H]23)OCO4)cc(OC)c1O
The Complex formation of the first is higher: 137% for the first, 124% for the second.

Compared with `COc1cc([C@@H]2c3cc(O)c(O)cc3[C@@H](Nc3ccccc3)[C@H]3COC(=O)[C@H]23)cc(OC)c1OC`, `COc1cc([C@@H]2c3cc4c(cc3[C@@H](NC(=O)c3ccccc3)[C@H]3COC(=O)[C@H]23)OCO4)cc(OC)c1O` is higher in Complex formation: 9% for the first, 177% for the second.

Compared with `COc1cc([C@@H]2c3cc4c(cc3[C@@H](OC(=O)c3ccccc3)[C@H]3COC(=O)[C@H]23)OCO4)cc(OC)c1O`, `COc1cc([C@@H]2c3cc4c(cc3[C@@H](Nc3ccc(NC(=O)C56CCC(C)(C(=O)O5)C6(C)C)cc3)[C@H]3COC(=O)[C@H]23)OCO4)cc(OC)c1O` (stereo partly specified) is lower in Complex formation: 94% for the first, 88% for the second.

For `COc1cc([C@@H]2c3cc4c(cc3[C@@H](NCCN(C)C)[C@H]3COC(=O)[C@H]23)OCO4)cc(OC)c1O`, the Complex formation was 183% and 203%.
In the case of `COc1cc([C@@H]2c3cc4c(cc3[C@@H](NCCCN(C)C)[C@H]3COC(=O)[C@H]23)OCO4)cc(OC)c1O`, the Complex formation is reported as 179% and 186%.
